Measured values published in ChEMBL document CHEMBL1135857, “Exploration of peptidyl hydrazones as water-soluble calpain inhibitors” (Bioorg Med Chem Lett, 2002).
≈ marks a conversion by molar mass, not a printed value.

How the values were obtained:
[1] = Water solubility was determined at pH 4; assay type: ADME
[2] = Water solubility was determined at pH 5; assay type: ADME
[3] = Water solubility was determined at pH 6; assay type: ADME
[4] = Water solubility was determined at pH 7; assay type: ADME
[5] = target: T1, Calpain-1 catalytic subunit (Sus scrofa, UniProt P35750); experiment: Tested for inhibitory activity against porcine erythrocyte Mu-calpain
T1 sequence (P35750 whole entry): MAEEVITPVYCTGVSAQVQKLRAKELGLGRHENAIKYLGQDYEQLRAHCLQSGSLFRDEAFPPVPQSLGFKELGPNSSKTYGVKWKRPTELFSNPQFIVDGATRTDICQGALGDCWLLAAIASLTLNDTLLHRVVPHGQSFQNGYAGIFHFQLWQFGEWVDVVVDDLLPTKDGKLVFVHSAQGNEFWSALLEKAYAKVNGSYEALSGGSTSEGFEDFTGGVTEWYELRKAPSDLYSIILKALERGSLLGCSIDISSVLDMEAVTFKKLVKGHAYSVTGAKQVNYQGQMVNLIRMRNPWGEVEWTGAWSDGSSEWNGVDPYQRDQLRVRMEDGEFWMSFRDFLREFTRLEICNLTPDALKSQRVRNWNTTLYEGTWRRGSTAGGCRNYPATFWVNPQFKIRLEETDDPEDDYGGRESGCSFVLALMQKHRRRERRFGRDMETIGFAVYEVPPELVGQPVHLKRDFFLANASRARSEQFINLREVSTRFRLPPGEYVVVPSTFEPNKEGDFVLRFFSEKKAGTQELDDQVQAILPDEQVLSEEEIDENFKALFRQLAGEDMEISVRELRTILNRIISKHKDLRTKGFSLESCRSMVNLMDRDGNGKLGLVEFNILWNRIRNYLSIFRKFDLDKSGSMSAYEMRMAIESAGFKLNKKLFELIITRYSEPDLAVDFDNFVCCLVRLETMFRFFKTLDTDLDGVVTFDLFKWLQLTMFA

SMILES | solubility [1] | solubility [2] | solubility [3] | solubility [4] | IC50 [5]
CC(C)[C@H](NS(=O)(=O)c1ccc(F)cc1)C(=O)NC/C=N/N1CCOCC1 | 1260 µg/mL (≈ 3150 µM) | 840 µg/mL (≈ 2100 µM) | 692 µg/mL (≈ 1730 µM) | 667 µg/mL (≈ 1670 µM) | 6200 nM
CC(C)C[C@@H](/C=N/NC(N)=O)NC(=O)[C@@H](NS(=O)(=O)c1ccc(F)cc1)C(C)C | 433 µg/mL (≈ 1010 µM) |  |  |  | 680 nM
CC(C)C[C@@H](/C=N/NCCO)NC(=O)[C@@H](NS(=O)(=O)c1ccc(F)cc1)C(C)C | 228 µg/mL (≈ 530 µM) | 234 µg/mL (≈ 543 µM) | 226 µg/mL (≈ 525 µM) | 293 µg/mL (≈ 681 µM) | 190 nM

Further lines, results first:

solubility [1] | solubility [2] | solubility [3] | solubility [4] | IC50 [5] | SMILES
> 5000 µg/mL | > 5000 µg/mL | > 5000 µg/mL | > 5000 µg/mL | > 10000 nM | CC(C)[C@H](NS(=O)(=O)c1ccc(F)cc1)C(=O)NC/C=N/NC(=O)CN(C)C
102 µg/mL (≈ 274 µM) |  | 100 µg/mL (≈ 268 µM) | 105 µg/mL (≈ 282 µM) | 35 nM | CC(C)C[C@@H](C=O)NC(=O)[C@@H](NS(=O)(=O)c1ccc(F)cc1)C(C)C
67.3 µg/mL (≈ 147 µM) | 63.3 µg/mL (≈ 139 µM) | 60.8 µg/mL (≈ 133 µM) | 58.2 µg/mL (≈ 127 µM) | 790 nM | CC(C)C[C@@H](/C=N/N1CCOCC1)NC(=O)[C@@H](NS(=O)(=O)c1ccc(F)cc1)C(C)C
